According to PubChem BioAssay (NCI):
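Five concentrations, 48 hours, 96-well plates. TGI is the concentration that stops growth completely.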

Columns and labels:
Assay in all cases: DTP human tumour cell line panel, 48 h
786-0 renal = tested on: 786-0 renal
A498 renal = tested on: A498 renal
A549 NSCLC = tested on: A549 NSCLC
ACHN renal = tested on: ACHN renal
CAKI-1 renal = tested on: CAKI-1 renal
CCRF-CEM leukemia = tested on: CCRF-CEM leukemia
COLO 205 colon = tested on: COLO 205 colon
DU-145 prostate = tested on: DU-145 prostate
EKVX NSCLC = tested on: EKVX NSCLC
HCC-2998 colon = tested on: HCC-2998 colon
HCT-116 colon = tested on: HCT-116 colon
HCT-15 colon = tested on: HCT-15 colon
HL-60(TB) leukemia = tested on: HL-60(TB) leukemia
HOP-62 NSCLC = tested on: HOP-62 NSCLC
HOP-92 NSCLC = tested on: HOP-92 NSCLC
HS 578T breast = tested on: HS 578T breast
HT29 colon = tested on: HT29 colon
K-562 leukemia = tested on: K-562 leukemia
KM12 colon = tested on: KM12 colon
LOX IMVI melanoma = tested on: LOX IMVI melanoma
M14 melanoma = tested on: M14 melanoma
MALME-3M melanoma = tested on: MALME-3M melanoma
MCF7 breast = tested on: MCF7 breast
MDA-MB-231 breast = tested on: MDA-MB-231 breast
MDA-MB-435 = tested on: MDA-MB-435
MDA-N = tested on: MDA-N
MOLT-4 leukemia = tested on: MOLT-4 leukemia
NCI-H226 lung = tested on: NCI-H226 lung
NCI-H23 lung = tested on: NCI-H23 lung
NCI-H460 lung = tested on: NCI-H460 lung
NCI-H522 lung = tested on: NCI-H522 lung
NCI/ADR-RES ovarian = tested on: NCI/ADR-RES ovarian
OVCAR-3 ovarian = tested on: OVCAR-3 ovarian
OVCAR-5 ovarian = tested on: OVCAR-5 ovarian
PC-3 prostate = tested on: PC-3 prostate
RPMI-8226 leukemia = tested on: RPMI-8226 leukemia
RXF 393 renal = tested on: RXF 393 renal
SF-268 CNS = tested on: SF-268 CNS
SF-295 CNS = tested on: SF-295 CNS
SF-539 CNS = tested on: SF-539 CNS
SK-MEL-2 melanoma = tested on: SK-MEL-2 melanoma
SK-MEL-28 melanoma = tested on: SK-MEL-28 melanoma
SK-MEL-5 melanoma = tested on: SK-MEL-5 melanoma
SK-OV-3 ovarian = tested on: SK-OV-3 ovarian
SN12C renal = tested on: SN12C renal
SNB-19 CNS = tested on: SNB-19 CNS
SNB-75 CNS = tested on: SNB-75 CNS
SR leukemia = tested on: SR leukemia
SW-620 colon = tested on: SW-620 colon
T-47D breast = tested on: T-47D breast
TK-10 renal = tested on: TK-10 renal
U251 CNS = tested on: U251 CNS
UACC-257 melanoma = tested on: UACC-257 melanoma
UACC-62 melanoma = tested on: UACC-62 melanoma
UO-31 renal = tested on: UO-31 renal

O=c1ssc2ncccc12 was tested. Which TGI (786-0 renal) did it give?
Its TGI is 38.2 µM.

And the TGI (A498 renal)?
The TGI was > 100 µM.

And the TGI (A549 NSCLC)?
Its TGI is 39.7 µM.

And the TGI (ACHN renal)?
Its TGI is 31.9 µM.

What about the TGI (CAKI-1 renal) of the same molecule?
The TGI was > 100 µM.

What about the TGI (CCRF-CEM leukemia) of the same molecule?
The TGI was > 100 µM.

And the TGI (COLO 205 colon)?
Its TGI is 34.8 µM.

What about the TGI (DU-145 prostate) of the same molecule?
The TGI was > 100 µM.

And the TGI (EKVX NSCLC)?
The TGI was > 100 µM.

What about the TGI (HCC-2998 colon) of the same molecule?
The TGI was 39.3 µM.

And the TGI (HCT-116 colon)?
Its TGI is 40.1 µM.

What about the TGI (HCT-15 colon) of the same molecule?
Its TGI is 27.4 µM.

And the TGI (HL-60(TB) leukemia)?
The TGI was > 100 µM.

What about the TGI (HOP-62 NSCLC) of the same molecule?
Its TGI is 45.5 µM.

What about the TGI (HOP-92 NSCLC) of the same molecule?
Its TGI is > 100 µM.

What about the TGI (HS 578T breast) of the same molecule?
Its TGI is > 100 µM.

What about the TGI (HT29 colon) of the same molecule?
Its TGI is 53.6 µM.

What about the TGI (K-562 leukemia) of the same molecule?
Its TGI is > 100 µM.

What about the TGI (KM12 colon) of the same molecule?
The TGI was 48 µM.

What about the TGI (LOX IMVI melanoma) of the same molecule?
The TGI was 35 µM.

And the TGI (M14 melanoma)?
Its TGI is 41.8 µM.

And the TGI (MALME-3M melanoma)?
Its TGI is 50.2 µM.

And the TGI (MCF7 breast)?
The TGI was 33 µM.

What about the TGI (MDA-MB-231 breast) of the same molecule?
The TGI was 26.2 µM.

And the TGI (MDA-MB-435)?
The TGI was 31.5 µM.

What about the TGI (MDA-N) of the same molecule?
Its TGI is 34.9 µM.

What about the TGI (MOLT-4 leukemia) of the same molecule?
The TGI was > 100 µM.

What about the TGI (NCI-H226 lung) of the same molecule?
The TGI was 7.65 µM.

What about the TGI (NCI-H23 lung) of the same molecule?
Its TGI is > 100 µM.

What about the TGI (NCI-H460 lung) of the same molecule?
Its TGI is 52.3 µM.

And the TGI (NCI-H522 lung)?
The TGI was 28.9 µM.

What about the TGI (NCI/ADR-RES ovarian) of the same molecule?
Its TGI is > 100 µM.

And the TGI (OVCAR-3 ovarian)?
The TGI was 35.6 µM.

And the TGI (OVCAR-5 ovarian)?
Its TGI is 55.1 µM.

And the TGI (PC-3 prostate)?
Its TGI is > 100 µM.

What about the TGI (RPMI-8226 leukemia) of the same molecule?
Its TGI is 40.5 µM.

What about the TGI (RXF 393 renal) of the same molecule?
The TGI was 37.4 µM.

What about the TGI (SF-268 CNS) of the same molecule?
The TGI was 69.6 µM.

What about the TGI (SF-295 CNS) of the same molecule?
The TGI was > 100 µM.

And the TGI (SF-539 CNS)?
Its TGI is 70.5 µM.

What about the TGI (SK-MEL-2 melanoma) of the same molecule?
The TGI was 27.8 µM.

And the TGI (SK-MEL-28 melanoma)?
The TGI was 42.5 µM.

And the TGI (SK-MEL-5 melanoma)?
The TGI was 25.9 µM.

What about the TGI (SK-OV-3 ovarian) of the same molecule?
The TGI was > 100 µM.

What about the TGI (SN12C renal) of the same molecule?
The TGI was 28.8 µM.

What about the TGI (SNB-19 CNS) of the same molecule?
Its TGI is > 100 µM.

And the TGI (SNB-75 CNS)?
The TGI was 34.9 µM.

What about the TGI (SR leukemia) of the same molecule?
Its TGI is > 100 µM.

What about the TGI (SW-620 colon) of the same molecule?
Its TGI is 43.6 µM.

And the TGI (T-47D breast)?
Its TGI is > 100 µM.

And the TGI (TK-10 renal)?
The TGI was > 100 µM.

And the TGI (U251 CNS)?
The TGI was 33.1 µM.

What about the TGI (UACC-257 melanoma) of the same molecule?
The TGI was 50.4 µM.

What about the TGI (UACC-62 melanoma) of the same molecule?
The TGI was 24 µM.

And the TGI (UO-31 renal)?
The TGI was 32 µM.
